# Values of other authors in patent publication US20240170163A1, “SYSTEMS AND METHODS FOR DETECTING NEW DRUG PROPERTIES IN TARGET-BASED DRUG-DRUG SIMILARITY NETWORKS” (priority 2021, published 2024).
# What was measured:
# Klebsiella pneumoniae = settings: in vitro
# Candida albicans = settings: in vitro
# Candida = settings: liquid formulation, in vitro
# prostate carcinoma cells = settings: in vitro
# [1] = system: chronic lymphocytic leukemia (CLL)
# [2] = system: PR-transfected MDA-MB-231 cells
smiles,measurement,setting,value
N=C(N)NC(=O)c1nc(Cl)c(N)nc1N [Amiloride],activation of the dendritic cells,dendritic cells,inhibits the activation
same,inflammation,dendritic cells; besides its diuretic effects,ameliorates the inflammation
FC(F)OC(Cl)C(F)(F)F (stereo not shown) [Isoflurane],inhibitory effects on cultures of Klebsiella pneumoniae,Klebsiella pneumoniae,excellent inhibitory effects
same,inhibitory effects on cultures of Candida albicans,Candida albicans,excellent inhibitory effects
same,anti-Candida activity compared with Amphotericin B,Candida,better anti-Candida activity
COC(F)(F)C(Cl)Cl [Methoxyflurane],inhibitory effects on cultures of Klebsiella pneumoniae,Klebsiella pneumoniae,excellent inhibitory effects
same,inhibitory effects on cultures of Candida albicans,Candida albicans,excellent inhibitory effects
NC(Cn1ccc(=O)c(O)c1)C(=O)O (stereo not shown) [Mimosine],cell proliferation of prostate carcinoma cells,prostate carcinoma cells,attenuates cell proliferation
COc1cc([C@@H]2c3cc4c(cc3[C@H](O)[C@H]3COC(=O)[C@H]23)OCO4)cc(OC)c1OC [Podofilox],cytotoxicity in chronic lymphocytic leukemia (CLL),[1],potent cytotoxic agent
CC(=O)[C@H]1CC[C@H]2[C@@H]3CCC4=CC(=O)CC[C@]4(C)[C@H]3CC[C@]12C [Progesterone],expression of genes involved in cell proliferation and metastasis,[2],suppressed the expression
CCN(CC)CCCC(C)Nc1c2ccc(Cl)cc2nc2ccc(OC)cc12 (stereo not shown) [Quinacrine],DNA damage in breast cancer,breast cancer,induces DNA damage
same,apoptosis / cell cycle effect in breast cancer,breast cancer,produces apoptosis by blocking cells in S-phase
same,topoisomerase activity in breast cancer,breast cancer,inhibits topoisomerase activity
